# Values joined by “and” are separate entries in the source; they are usually repeats but may differ in a detail not shown here. Equal values may be shown once.
# Tested on: PC3
# Experiment: SRB cell viability assay, docetaxel with/without wilforlide A pretreatment
# Conditions: PC3
# [1] = no wilforlide A pre-Tx (control of Table 4), docetaxel 0.001 nM 72 h
# [2] = no wilforlide A pre-Tx (control of Table 4), docetaxel 0.1 nM 72 h
# [3] = no wilforlide A pre-Tx (control of Table 4), docetaxel 0.333 nM 72 h
# [4] = no wilforlide A pre-Tx (control of Table 4), docetaxel 1 nM 72 h
# [5] = no wilforlide A pre-Tx (control of Table 4), docetaxel 3.33 nM 72 h
# [6] = no wilforlide A pre-Tx (control of Table 4), docetaxel 10 nM 72 h
# [7] = no wilforlide A pre-Tx (control of Table 4), docetaxel 33.3 nM 72 h
# [8] = no wilforlide A pre-Tx (control of Table 4), docetaxel 100 nM 72 h
# [9] = no wilforlide A pre-Tx (control of Table 6), docetaxel 0.001 nM 72 h
# [10] = no wilforlide A pre-Tx (control of Table 6), docetaxel 0.1 nM 72 h
# [11] = no wilforlide A pre-Tx (control of Table 6), docetaxel 0.333 nM 72 h
# [12] = no wilforlide A pre-Tx (control of Table 6), docetaxel 1 nM 72 h
# [13] = no wilforlide A pre-Tx (control of Table 6), docetaxel 3.33 nM 72 h
# [14] = no wilforlide A pre-Tx (control of Table 6), docetaxel 10 nM 72 h
# [15] = no wilforlide A pre-Tx (control of Table 6), docetaxel 33.3 nM 72 h
# [16] = no wilforlide A pre-Tx (control of Table 6), docetaxel 100 nM 72 h
# [17] = no wilforlide A pre-Tx (control of Table 8), docetaxel 0.001 nM 72 h
# [18] = no wilforlide A pre-Tx (control of Table 8), docetaxel 0.1 nM 72 h
# [19] = no wilforlide A pre-Tx (control of Table 8), docetaxel 0.333 nM 72 h
# [20] = no wilforlide A pre-Tx (control of Table 8), docetaxel 1 nM 72 h
# [21] = no wilforlide A pre-Tx (control of Table 8), docetaxel 3.33 nM 72 h
# [22] = no wilforlide A pre-Tx (control of Table 8), docetaxel 10 nM 72 h
# [23] = no wilforlide A pre-Tx (control of Table 8), docetaxel 33.3 nM 72 h
# [24] = no wilforlide A pre-Tx (control of Table 8), docetaxel 100 nM 72 h
# [25] = wilforlide A 0.6 μg/ml pre-Tx, docetaxel 0.1 nM 72 h
# [26] = wilforlide A 0.6 μg/ml pre-Tx, docetaxel 0.333 nM 72 h
# [27] = wilforlide A 0.6 μg/ml pre-Tx, docetaxel 1 nM 72 h
# [28] = wilforlide A 0.6 μg/ml pre-Tx, docetaxel 3.33 nM 72 h
# [29] = wilforlide A 0.6 μg/ml pre-Tx, docetaxel 10 nM 72 h
# [30] = wilforlide A 0.6 μg/ml pre-Tx, docetaxel 33.3 nM 72 h
# [31] = wilforlide A 0.6 μg/ml pre-Tx, docetaxel 100 nM 72 h
# [32] = wilforlide A 2.5 μg/ml pre-Tx, docetaxel 0.001 nM 72 h
# [33] = wilforlide A 2.5 μg/ml pre-Tx, docetaxel 0.1 nM 72 h
# [34] = wilforlide A 2.5 μg/ml pre-Tx, docetaxel 0.333 nM 72 h
# [35] = wilforlide A 2.5 μg/ml pre-Tx, docetaxel 1 nM 72 h
# [36] = wilforlide A 2.5 μg/ml pre-Tx, docetaxel 3.33 nM 72 h
# [37] = wilforlide A 2.5 μg/ml pre-Tx, docetaxel 10 nM 72 h
# [38] = wilforlide A 2.5 μg/ml pre-Tx, docetaxel 33.3 nM 72 h
# [39] = wilforlide A 2.5 μg/ml pre-Tx, docetaxel 100 nM 72 h
# [40] = wilforlide A […] pre-Tx, docetaxel 0.001 nM 72 h
# [41] = wilforlide A […] pre-Tx, docetaxel 0.1 nM 72 h
# [42] = wilforlide A […] pre-Tx, docetaxel 0.333 nM 72 h
# [43] = wilforlide A […] pre-Tx, docetaxel 1 nM 72 h
# [44] = wilforlide A […] pre-Tx, docetaxel 3.33 nM 72 h
# [45] = wilforlide A […] pre-Tx, docetaxel 10 nM 72 h
# [46] = wilforlide A […] pre-Tx, docetaxel 33.3 nM 72 h
# [47] = wilforlide A […] pre-Tx, docetaxel 100 nM 72 h
# Protocol: Following the 72 hour wilforlide A treatment, a sulforhodamine B (SRB) assay was used to quantitate living cells. To perform the assay, the wilforlide A media was aspirated from each well, and replaced with a 10% solution of cold trichloroacetic acid (TCA) (Cat #: T6399, purchased from Sigma-Aldrich), and incubated for one hour at 4° C. After the TCA incubation, the TCA solution was aspirated, and the cells were washed five times with tap water. After removing the last wash, the plates were left with lids off at room temperature until the surfaces were dry, which took one to two hours. Then 50 μl of a 0.4% solution of sul-forhodamine B (SRB) sodium salt (Cat #: S9012, purchased from Sigma-Aldrich) was added to each well and the plates were incubated at room temperature for 20 to 30 minutes. Afterwards, the wells were washed five times with a 1% acetic acid solution in 10 mM TRIS base (Cat #: 161-0719, purchased from Bio-Rad Laboratories, Hercules, Calif.). The plates were subsequently left to dry for several hours or overnight. SRB that remained in the dried wells was solubilized by adding 100 μl of SRB solubilization solution (10 mM TRIS base) to each well, and placing the plates either on a gently-moving shaker or letting the plates remain stationary at room temperature until the SRB dissolves, which takes about five to ten minutes. The amount of SRB in each well, which correlated directly to the number of living cells at fixation, was determined spectrophotometrically at an absorbance of 565 nm by a microplate reader.
# In these comparisons, the in vitro IC50 of a tested chemotherapeutic drug (D) in cell culture was compared to the drug's IC50 when drug treatment followed pretreatment of the cells with wilforlide A (Purchased from PI & PI Technology Inc. of Guangzhou, China or the National Institutes for Food and Drug Control in Beijing, China).
# Triplicate wells were assigned to each experimental condition tested, and a 24 hour recovery period for the cells following the seeding of the wells was allowed. During the recovery period, the cells were incubated at 37° C. and 5% CO2.
# At the end of the two hour pre-treatment period, 50 μl aliquots of the desired chemotherapeutic drug RPMI medium were added according to the amounts provided in Table 2.
# After adding the various doses of chemotherapeutic drugs, as described above, the cells were incubated for an additional 72 hours under the same temperature and atmospheric conditions used for the pre-treatment step.
# The cells were then incubated for 72 hours at 37° C. and 5% CO2. After the 72 hour incubation, sulforhodamine B (SRB) assays were performed as described in Example 1 to quantitate living cells.
smiles,measurement,setting,value
CC(=O)O[C@@]12CO[C@@H]1C[C@H](O)[C@@]1(C)C(=O)[C@H](O)C3=C(C)[C@@H](OC(=O)[C@H](O)[C@@H](NC(=O)OC(C)(C)C)c4ccccc4)C[C@@](O)([C@@H](OC(=O)c4ccccc4)[C@H]21)C3(C)C [docetaxel],% viable,[1],100.0%
same,mean A,[1],1.839
same,A at 565 nm,"no wilforlide A pre-Tx (control of Table 4), docetaxel 0.001 nM 72 h, background = 0.043",1.827 and 1.892 and 1.800
same,% viable,[2],102.0%
same,mean A,[2],1.876
same,A at 565 nm,"no wilforlide A pre-Tx (control of Table 4), docetaxel 0.1 nM 72 h, background = 0.043",1.875 and 1.878
same,% viable,[3],97.7%
same,mean A,[3],1.796
same,A at 565 nm,"no wilforlide A pre-Tx (control of Table 4), docetaxel 0.333 nM 72 h, background = 0.043",1.845 and 1.808 and 1.737
same,% viable,[4],74.7%
same,mean A,[4],1.374
same,A at 565 nm,"no wilforlide A pre-Tx (control of Table 4), docetaxel 1 nM 72 h, background = 0.043",1.452 and 1.366 and 1.306
same,% viable,[5],46.3%
same,mean A,[5],0.851
same,A at 565 nm,"no wilforlide A pre-Tx (control of Table 4), docetaxel 3.33 nM 72 h, background = 0.043",0.862 and 0.832 and 0.860
same,% viable,[6],22.5%
same,mean A,[6],0.415
same,A at 565 nm,"no wilforlide A pre-Tx (control of Table 4), docetaxel 10 nM 72 h, background = 0.043",0.432 and 0.409 and 0.404
same,% viable,[7],16.4%
same,mean A,[7],0.303
same,A at 565 nm,"no wilforlide A pre-Tx (control of Table 4), docetaxel 33.3 nM 72 h, background = 0.043",0.321 and 0.295 and 0.293
same,% viable,[8],15.9%
same,mean A,[8],0.293
same,A at 565 nm,"no wilforlide A pre-Tx (control of Table 4), docetaxel 100 nM 72 h, background = 0.043",0.300 and 0.270 and 0.311
same,% viable,[9],100.0%
same,mean A,[9],1.952
same,A at 565 nm,"no wilforlide A pre-Tx (control of Table 6), docetaxel 0.001 nM 72 h, background = 0.044",1.888 and 2.010 and 1.957
same,% viable,[10],100.7%
same,mean A,[10],1.966
same,A at 565 nm,"no wilforlide A pre-Tx (control of Table 6), docetaxel 0.1 nM 72 h, background = 0.044",1.980 and 1.925 and 1.992
same,% viable,[11],93.1%
same,mean A,[11],1.817
same,A at 565 nm,"no wilforlide A pre-Tx (control of Table 6), docetaxel 0.333 nM 72 h, background = 0.044",1.735 and 1.845 and 1.871
same,% viable,[12],70.9%
same,mean A,[12],1.384
same,A at 565 nm,"no wilforlide A pre-Tx (control of Table 6), docetaxel 1 nM 72 h, background = 0.044",1.398 and 1.314 and 1.441
same,% viable,[13],46.6%
same,mean A,[13],0.909
same,A at 565 nm,"no wilforlide A pre-Tx (control of Table 6), docetaxel 3.33 nM 72 h, background = 0.044",0.895 and 0.942 and 0.889
same,% viable,[14],22.9%
same,mean A,[14],0.447
same,A at 565 nm,"no wilforlide A pre-Tx (control of Table 6), docetaxel 10 nM 72 h, background = 0.044",0.464 and 0.427 and 0.450
same,% viable,[15],18.1%
same,mean A,[15],0.354
same,A at 565 nm,"no wilforlide A pre-Tx (control of Table 6), docetaxel 33.3 nM 72 h, background = 0.044",0.337 and 0.357 and 0.368
same,% viable,[16],18.4%
same,mean A,[16],0.360
same,A at 565 nm,"no wilforlide A pre-Tx (control of Table 6), docetaxel 100 nM 72 h, background = 0.044",0.349 and 0.366 and 0.365
same,% viable,[17],100.0%
same,mean A,[17],1.990
same,% viable,[18],101.2%
same,mean A,[18],2.014
same,% viable,[19],95.1%
same,mean A,[19],1.892
same,% viable,[20],71.2%
same,mean A,[20],1.417
same,% viable,[21],45.8%
same,mean A,[21],0.911
same,% viable,[22],23.0%
same,mean A,[22],0.458
same,% viable,[23],17.8%
same,mean A,[23],0.354
same,% viable,[24],17.4%
same,mean A,[24],0.346
same,mean A,"wilforlide A 0.6 μg/ml pre-Tx, docetaxel 0.001 nM 72 h",1.807
same,A at 565 nm,"wilforlide A 0.6 μg/ml pre-Tx, docetaxel 0.001 nM 72 h, background = 0.043",1.812 and 1.840 and 1.769
same,% viable,[25],102.3%
same,mean A,[25],1.848
same,A at 565 nm,"wilforlide A 0.6 μg/ml pre-Tx, docetaxel 0.1 nM 72 h, background = 0.043",1.855 and 1.874 and 1.816
same,% viable,[26],99.3%
same,mean A,[26],1.794
same,A at 565 nm,"wilforlide A 0.6 μg/ml pre-Tx, docetaxel 0.333 nM 72 h, background = 0.043",1.759 and 1.804 and 1.820
same,% viable,[27],72.9%
same,mean A,[27],1.317
same,A at 565 nm,"wilforlide A 0.6 μg/ml pre-Tx, docetaxel 1 nM 72 h, background = 0.043",1.303 and 1.386 and 1.263
same,% viable,[28],44.9%
same,mean A,[28],0.811
same,A at 565 nm,"wilforlide A 0.6 μg/ml pre-Tx, docetaxel 3.33 nM 72 h, background = 0.043",0.843 and 0.814 and 0.777
same,% viable,[29],22.7%
same,mean A,[29],0.409
same,A at 565 nm,"wilforlide A 0.6 μg/ml pre-Tx, docetaxel 10 nM 72 h, background = 0.043",0.408 and 0.421 and 0.400
same,% viable,[30],17.5%
same,mean A,[30],0.316
same,A at 565 nm,"wilforlide A 0.6 μg/ml pre-Tx, docetaxel 33.3 nM 72 h, background = 0.043",0.302 and 0.323
same,% viable,[31],16.5%
same,mean A,[31],0.299
same,A at 565 nm,"wilforlide A 0.6 μg/ml pre-Tx, docetaxel 100 nM 72 h, background = 0.043",0.290 and 0.287 and 0.320
same,% viable,[32],100.0%
same,mean A,[32],1.752
same,% viable,[33],101.9%
same,mean A,[33],1.786
same,% viable,[34],94.1%
same,mean A,[34],1.648
same,A at 565 nm,"wilforlide A 2.5 μg/ml pre-Tx, docetaxel 0.333 nM 72 h, background = 0.044",1.672
same,% viable,[35],69.8%
same,mean A,[35],1.222
same,A at 565 nm,"wilforlide A 2.5 μg/ml pre-Tx, docetaxel 1 nM 72 h, background = 0.044",1.201
same,% viable,[36],43.9%
same,mean A,[36],0.769
same,A at 565 nm,"wilforlide A 2.5 μg/ml pre-Tx, docetaxel 3.33 nM 72 h, background = 0.044",0.810
same,% viable,[37],23.0%
same,mean A,[37],0.403
same,A at 565 nm,"wilforlide A 2.5 μg/ml pre-Tx, docetaxel 10 nM 72 h, background = 0.044",0.402
same,% viable,[38],19.2%
same,mean A,[38],0.336
same,A at 565 nm,"wilforlide A 2.5 μg/ml pre-Tx, docetaxel 33.3 nM 72 h, background = 0.044",0.358
same,% viable,[39],18.4%
same,mean A,[39],0.322
same,A at 565 nm,"wilforlide A 2.5 μg/ml pre-Tx, docetaxel 100 nM 72 h, background = 0.044",0.318
same,% viable,[40],100.0%
same,mean A,[40],1.957
same,% viable,[41],100.4%
same,mean A,[41],1.965
same,% viable,[42],92.2%
same,mean A,[42],1.804
same,% viable,[43],67.0%
same,mean A,[43],1.311
same,% viable,[44],41.7%
same,mean A,[44],0.816
same,% viable,[45],23.9%
same,mean A,[45],0.467
same,% viable,[46],19.1%
same,mean A,[46],0.373
same,% viable,[47],18.4%
same,mean A,[47],0.361
same,IC50,"read-out: Drug IC50 after wilforlide A pre-Tx, pre-Tx amount of wilforlide A printed as none added",1.61 nM
